Patent publication US4740233A, “Substituted 1,2,4-triazolo[1,5-a]-pyrimidine-2-sulfonamides and compositions and methods of controlling undesired vegetation and suppressing the nitrification of ammonium nitrogen in soil” (The Dow Chemical Company, priority 1986, dated 1988)

Assays:
Experiment in all cases: Preemergent control of plant species
cotton = format: in vivo, Gossypium spp.; settings: 0.25 lb/acre; for plant injury at 280.212 g/ha: Gossypium hirsutum, pre-emergence, 336 h, read-out: percent preemergent control
Method: (§1) The seeds of various species of plants were planted in beds of good agricultural soil in a greenhouse. A number of compositions of the present invention, generally in the nature of an aqueous emulsion, were applied at rates listed in the table so as to deposit a predetermined amount of active ingredients uniformly throughout the surface of the bed. Another seed bed was treated only with water to serve as a control. After treatment the seed beds were maintained for two weeks under greenhouse conditions conducive for good plant growth and watered as necessary. Control refers to the reduction in growth compared to the observed results of the same untreated species.

soybean = format: in vivo, Glycine max.; settings: 0.25 lb/acre; for plant injury at 280.212 g/ha: Glycine max, pre-emergence, 336 h, read-out: percent preemergent control
Method: as §1

sugar beet = format: in vivo, Beta saccharifera; settings: 0.25 lb/acre; for plant injury at 280.212 g/ha: Beta vulgaris, pre-emergence, 336 h, read-out: percent preemergent control
Method: as §1

jimsonweed = format: in vivo, Datura stramonium; settings: 0.25 lb/acre; for pest or weed control at 280.212 g/ha: Datura stramonium, pre-emergence, 336 h, read-out: percent preemergent control
Method: as §1

annual morning glory = format: in vivo, Ipomoea spp.; settings: 0.25 lb/acre; for pest or weed control at 280.212 g/ha: Ipomoea, pre-emergence, 336 h, read-out: percent preemergent control
Method: as §1

velvetleaf = format: in vivo, Abutilon theophrasti; settings: 0.25 lb/acre; for pest or weed control at 280.212 g/ha: Abutilon theophrasti, pre-emergence, 336 h, read-out: percent preemergent control
Method: as §1

corn = format: in vivo, Zea mays; settings: 0.25 lb/acre; for plant injury at 280.212 g/ha: Zea mays, pre-emergence, 336 h, read-out: percent preemergent control
Method: as §1

rice = format: in vivo, Oryza sativa; settings: 0.25 lb/acre; for plant injury at 280.212 g/ha: Oryza sativa, pre-emergence, 336 h, read-out: percent preemergent control
Method: as §1

sorghum = format: in vivo, Sorghum vulgare; settings: 0.25 lb/acre; for plant injury at 280.212 g/ha: Sorghum, pre-emergence, 336 h, read-out: percent preemergent control
Method: as §1

wheat = format: in vivo, Triticum aestivum; settings: 0.25 lb/acre; for plant injury at 280.212 g/ha: Triticum aestivum, pre-emergence, 336 h, read-out: percent preemergent control
Method: as §1

barnyardgrass = format: in vivo, Echinochloa crusgalli; settings: 0.25 lb/acre; for pest or weed control at 280.212 g/ha: Echinochloa crus-galli, pre-emergence, 336 h, read-out: percent preemergent control
Method: as §1

johnson grass = format: in vivo, Sorghum halepense; settings: 0.25 lb/acre; for pest or weed control at 280.212 g/ha: Sorghum halepense, pre-emergence, 336 h, read-out: percent preemergent control
Method: as §1

yellow foxtail = format: in vivo, Setaria lutescens; settings: 0.25 lb/acre; for pest or weed control at 280.212 g/ha: Setaria, pre-emergence, 336 h, read-out: percent preemergent control
Method: as §1

yellow nutsedge = format: in vivo, Cyperus esculentus; settings: 0.25 lb/acre; for pest or weed control at 280.212 g/ha: Cyperus, pre-emergence, 336 h, read-out: percent preemergent control
Method: as §1

rape = format: in vivo, Brassica napus; settings: 0.25 lb/acre; for plant injury at 280.212 g/ha: Brassica napus, pre-emergence, 336 h, read-out: percent preemergent control
Method: as §1

Structure (SMILES)	plant injury at 280.212 g/ha (cotton) [%]	plant injury at 280.212 g/ha (soybean) [%]	plant injury at 280.212 g/ha (sugar beet) [%]	pest or weed control at 280.212 g/ha (jimsonweed) [%]	pest or weed control at 280.212 g/ha (annual morning glory) [%]	pest or weed control at 280.212 g/ha (velvetleaf) [%]	plant injury at 280.212 g/ha (corn) [%]	plant injury at 280.212 g/ha (rice) [%]	plant injury at 280.212 g/ha (sorghum) [%]	plant injury at 280.212 g/ha (wheat) [%]	pest or weed control at 280.212 g/ha (barnyardgrass) [%]	pest or weed control at 280.212 g/ha (johnson grass) [%]	pest or weed control at 280.212 g/ha (yellow foxtail) [%]	pest or weed control at 280.212 g/ha (yellow nutsedge) [%]	plant injury at 280.212 g/ha (rape) [%]	other results
O=S(=O)(Nc1c(Cl)cccc1Cl)c1nc2ncccn2n1 [Compound 137]	80	0	100	10	70	80	0	50	30	30	20	20	20	100	–	–
O=S(=O)(Nc1c(F)cccc1F)c1nc2ncccn2n1 [Compound 138]	100	50	90	20	20	90	30	50	50	10	0	90	90	80	100	–
Cc1ccc(Cl)c(NS(=O)(=O)c2nc3ncccn3n2)c1Cl [Compound 139]	100	50	100	100	90	100	70	90	100	80	80	100	100	100	100	–
COc1cccc(C(F)(F)F)c1NS(=O)(=O)c1nc2ncccn2n1 [Compound 141]	100	100	100	100	100	100	100	100	100	95	95	100	100	75	100	–
COc1cccc(F)c1NS(=O)(=O)c1nc2nc(C)ccn2n1 [Compound 171]	70	20	100	20	50	90	40	90	100	50	100	100	100	80	100	–
COc1ccc(F)c(NS(=O)(=O)c2nc3nc(C)ccn3n2)c1F [Compound 172]	100	90	100	100	90	100	80	100	100	90	100	90	100	100	–	–
Cc1ccn2nc(S(=O)(=O)Nc3c(F)cccc3[N+](=O)[O-])nc2n1 [Compound 173]	–	–	–	–	–	–	–	–	–	–	–	–	–	–	–	percent preemergent control (cotton): 50%; percent preemergent control (rape): 80%; percent preemergent control (soybean): 0%; percent preemergent control (sugar beet): 90%; percent preemergent control (jimsonweed): 0%; percent preemergent control (annual morning glory): 0%; percent preemergent control (velvetleaf): 0%; percent preemergent control (corn): 30%; percent preemergent control (rice): 70%; percent preemergent control (sorghum): 30%; percent preemergent control (wheat): 20%; percent preemergent control (barnyardgrass): 30%; percent preemergent control (johnson grass): 70%; percent preemergent control (yellow foxtail): 50%; percent preemergent control (yellow nutsedge): 0%
Cc1ccc(F)c(NS(=O)(=O)c2nc3nccc(C)n3n2)c1F [Compound 190]	90	90	100	90	50	50	10	20	95	20	30	30	70	100	–	–
COc1cccc(C(F)(F)F)c1NS(=O)(=O)c1nc2nccc(C)n2n1 [Compound 191]	100	100	100	100	100	100	95	–	100	100	100	100	100	100	100	–
Cc1cc(C(F)(F)F)n2nc(S(=O)(=O)Nc3c(F)cccc3F)nc2n1 [Compound 228]	90	20	100	100	70	90	50	–	100	50	90	90	50	50	80	–
CSc1nc2nc(S(=O)(=O)Nc3c(Cl)cccc3Cl)nn2cc1C [Compound 235]	50	0	50	50	90	20	50	10	50	50	–	0	20	0	–	–
Cc1cn2nc(S(=O)(=O)Nc3c(Cl)cccc3Cl)nc2nc1N(C)C [Compound 237]	50	40	50	10	20	0	20	20	20	100	10	10	30	30	–	–
